Test: molar heat capacity at constant pressure; xn = mol fraction of the nth substance listed
Details: 101 kPa, Liquid, Small sample (50 mg) DSC

CCC(N)(CO)CO [2-amino-2-ethyl-1,3-propanediol] + O
molar heat capacity at constant pressure [J/K/mol]
Details	x1 = 0.1494	x1 = 0.3002	x1 = 0.4502	x1 = 0.5992	x1 = 0.7505	x1 = 0.8989	x1 = 1
303.15 K	107.2	141.9	178.1	216.5	260.2	314.7	367.5
308.15 K	108.6	143.7	180.3	219.2	263.4	318.5	370.5
313.15 K	110	145.5	182.5	221.9	266.6	322.3	374.1
318.15 K	111.3	147.3	184.7	224.7	269.9	325.9	378
323.15 K	112.7	149.1	186.9	227.4	273.1	329.6	381.5
328.15 K	113.8	151	189.1	230.1	276.4	333.3	385.8
333.15 K	115.5	152.8	191.3	232.8	279.6	337	389.9
338.15 K	116.8	154.6	193.5	235.6	282.8	340.7	393.9
343.15 K	118.3	156.5	195.7	238.3	286.1	344.4	398.6
348.15 K	119.6	158.3	197.9	241	289.3	348.3	403.1
353.15 K	121.3	160.2	200.2	243.8	292.6	352	408.2
